According to patent publication US11332470B2, “CXCR4 inhibitors and uses thereof” (X4 Pharmaceuticals, Inc., priority 2016, dated 2022):

Columns and labels:
[1] = biological target: T1, CXCR4 (U87.CXCR4 cells) (Homo sapiens, UniProt P61073); test: Intracellular CXCL-12-induced calcium mobilization assay (FLIPR); assay type: cell-based; details: CXCL-12 25-50 ng/mL, read-out: IC50 CXCL-12 Ca2+ flux U87.CXCR4+
T1 construct: expressed in transfected cells; host or cells: U87 (U87.CXCR4)
Procedure: Intracellular CXCL-12-Induced Calcium Mobilization Assay
Intracellular calcium mobilization induced by chemokines or chemokine-derived peptides were evaluated using a calcium responsive fluorescent probe and a FLIPR system. The CXCR-4 transfected U87 cell line (U87.CXCR4) cells were seeded in gelatine-coated black-wall 96-well plates at 20,000 cells per well and incubated for 12 hours. Cells were then loaded with the fluorescent calcium probe Fluo-2 acetoxymethyl at 4 μM final concentration in assay buffer (Hanks' balanced salt solution with 20 mM HEPES buffer and 0.2% bovine serum albumin, pH 7.4) for 45 min at 37° C. The intracellular calcium mobilization induced by the CXCL-12 (25-50 ng/mL) was then measured at 37° C. by monitoring the fluorescence as a function of time in all the wells simultaneously using a fluorometric imaging plate reader (FLIPR Tetra, Molecular Devices).

[2] = biological target: T2, CXCR4 (Jurkat cells expressing CXCR4) (Homo sapiens, UniProt P61073); test: Chemokine (CXCL12-AF647) binding inhibition assay; details: CXCL12-AF647 25 ng/mL, read-out: IC50 CXCL-12 binding Jurkat
T2 construct: Jurkat cells expressing CXCR4; endogenous in cells; host or cells: Jurkat
Procedure: Chemokine (CXCL12-AF647) Binding Inhibition Assay
Jurkat cells expressing CXCR4 were washed once with assay buffer (Hanks' balanced salt solution with 20 mM HEPES buffer and 0.2% bovine serum albumin, pH 7.4) and then incubated for 15 min at room temperature with the test compounds diluted in assay buffer at dose-dependent concentrations. Subsequently, CXCL12-AF647 (25 ng/mL) was added to the compound-incubated cells. The cells were incubated for 30 min at room temperature. Thereafter, the cells were washed twice in assay buffer, fixed in 1% paraformaldehyde in PBS, and analyzed on the FL4 channel of a FACSCalibur flow cytometer equipped with a 635-nm red diode laser (Becton Dickinson, San Jose, Calif., USA).
The percentages of inhibition of CXCL12-AF647 binding were calculated according to the formula: [1−((MFI−MFINC)/(MFIPC−MFINC))]×100 where MFI is the mean fluorescence intensity of the cells incubated with CXCL12-AF647 in the presence of the inhibitor, MFINC is the mean fluorescence intensity measured in the negative control (i.e., autofluorescence of unlabeled cells), and MFIPC is the mean fluorescence intensity of the positive control (i.e., cells exposed to CXCL12-AF647 alone).

[3] = in vitro; details: human, Caco-2, pH 7.4
Procedure: The goal of this assay was to evaluate the intestinal absorption potential of drug candidates using Caco-2 cell lines.
1. Prewarm Prewarm HBSS Buffer in 37° C. water bath
2. Sonicate Take compounds from −20° C., sonicate for a few minutes (no less than 1 minute)
• Donor solution buffer: For A-to-B Direction: HBSS buffer with 0.3% DMSO and 5 μM LY: add 150 μL DMSO and 50 μL LY (5 mM) into 50 ml HBSS buffer (pH 7.4). HBSS buffer with 0.1% DMSO and 5 μM LY: add 50 μL DMSO and 50 μL LY (5 mM) into 50 mL HBSS buffer (pH 7.4). For B-to-A Direction: HBSS buffer with 0.3% DMSO: add 150 μL DMSO into 50 ml HBSS buffer (pH 7.4). HBSS buffer with 0.1% DMSO: add 50 μL DMSO into 50 ml HBSS buffer (pH 7.4). Receiver Solution Buffer: For A-to-B Direction: Prepare HBSS buffer with 0.4% DMSO: add 200 μL DMSO into 50 ml HBSS buffer (pH 7.4). For B-to-A Direction: Prepare HBSS buffer with 0.4% DMSO and 5 μM LY: add 200 μL DMSO and 50 μL LY (5 mM) into 50 ml HBSS buffer (pH 7.4).
4. Measure TEER Take cell culture plate out of incubator, wash the cell monolayers with HBSS buffer, and then measure TEER values at Rm temperature. 5. Centrifuge Centrifuge the compound solution (from step 3) at 4000 rpm for 5 min before loading to donor chambers. 6. Dosing Add solution based on the volumes listed in the following table (make sure to take extra 100 μL of donor sample for TO as Backup).
7. Apical LYT0 samples To determine LY concentration in the apical chamber, take 100 μL sample from apical chambers into an opaque plate for LYT0. 8. Prewarm Prewarm apical and basolateral plates at 37° C. for about 5 min, then begin transport by placing the apical plate onto basolateral plate. 9. Incubation Keep the plates in incubator at 37° C. for 90 min. 10.
Prepare Working Solution in MeOH/H2O (1:1)
• Prepare 1×solution: 3 μL (20×)+57 μL of 0.4% DMSO HBSS+60 μL ACN with IS (Osalmid or Imipramine)−120 μL (1×) 11. Transport termination Separate the apical plate from the basolateral plate after 90-min incubation. 12. Measure LY Take 100 μL samples from basolateral plate to an opaque plate as LYT90. 13. Measure LY concentrations for LYT0 and LYT90 by Fluorometer (at excitation of 485 nm/emission of 535 nm). 14.
Study details: Test concentration 10 μM
Test systems: Caco-2/HBSS solution
Incubation conditions: 0, 90 min at 37° C.
Sample size: Duplicates (n=2)
Bioanalytical method: LC-MS/MS
For Millicell-24 Cell Culture Plates: surface area of the membrane=0.7 cm^2, VA=0.8 mL (A-to-B) or 0.4 mL (B-to-A)
The compound numbers correspond to the compound numbers in Table 1.

T1 sequence (P61073 whole entry): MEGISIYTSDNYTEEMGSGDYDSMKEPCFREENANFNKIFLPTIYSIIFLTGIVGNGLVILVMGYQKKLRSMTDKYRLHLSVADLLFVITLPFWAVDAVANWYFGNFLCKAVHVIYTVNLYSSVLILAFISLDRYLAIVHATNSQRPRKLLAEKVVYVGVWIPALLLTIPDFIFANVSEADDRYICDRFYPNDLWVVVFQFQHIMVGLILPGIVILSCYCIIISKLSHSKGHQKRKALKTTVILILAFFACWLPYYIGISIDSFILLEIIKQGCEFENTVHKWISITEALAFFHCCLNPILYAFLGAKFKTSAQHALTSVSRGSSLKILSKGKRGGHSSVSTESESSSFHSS
T2 sequence (P61073 whole entry): as above

Compound | IC50 [1] | IC50 [2] | Papp A→B at 90 min, 10 μM [3] | Papp B→A at 90 min, 10 μM [3] | efflux ratio at 90 min, 10 μM [3]
Cc1cccnc1C1CCCN1Cc1cn2c(N3CCN(C4CC4)CC3)cccc2n1 (centres unmarked) [Compound I-32] | 100 to 1000 nM | 100 to 1000 nM | 0.1 to 10 ×10⁻⁶ cm/s | 10 to 30 ×10⁻⁶ cm/s | 0.1 to 10
Cc1cccnc1C1CCCN1Cc1nccn1-c1ccncc1 (centres unmarked) [Compound I-115] | ≥ 1000 nM | 100 to 1000 nM |  |  | 
Cc1cccnc1CN1CCCC1c1nc2ccccc2n1C1CCN(C)CC1 (centres unmarked) [Compound I-77] | ≥ 1000 nM | 0.01 to 100 nM |  |  | 
c1ccc(C2CCCN2Cc2nc3ccccn3c2N2CCN(C3CC3)CC2)nc1 (centres unmarked) [Compound I-57] | 100 to 1000 nM | 0.01 to 100 nM | 10 to 30 ×10⁻⁶ cm/s | 10 to 30 ×10⁻⁶ cm/s | 0.1 to 10
CN1CCC(n2c(C3CCCN3Cc3ccccn3)nc3ccccc32)CC1 (centres unmarked) [Compound I-78] | ≥ 1000 nM | 0.01 to 100 nM |  |  | 
c1ccc(C2CCCN2Cc2ncccc2-n2cccn2)nc1 (centres unmarked) [Compound I-67] | ≥ 1000 nM | ≥ 1000 nM |  |  | 
Cc1cccnc1C1CCCN1Cc1nc2ccccc2n1CC1CCN(C)CC1 (centres unmarked) [Compound I-122] | 0.01 to 100 nM | 0.01 to 100 nM | 0.1 to 10 ×10⁻⁶ cm/s | > 30 ×10⁻⁶ cm/s | 0.1 to 10
Cc1cccnc1C1CCCN1Cc1cn2c(C3OCC(N(C)C)CO3)cccc2n1 (centres unmarked) [Compound I-99] | 100 to 1000 nM | 0.01 to 100 nM | 0.1 to 10 ×10⁻⁶ cm/s | > 30 ×10⁻⁶ cm/s | > 30
Cc1cccnc1C1CCCN1Cc1nc2cccc(N3CCN(C)CC3)n2c1Br (centres unmarked) [Compound I-7, 3-bromo-5-(4-methylpiperazin-1-yl)-2-((2-(3-methylpyridin-2-yl)pyrrolidin-1-yl)methyl)imi-dazo[1,2-a]pyridine] | 100 to 1000 nM | 100 to 1000 nM | 0.1 to 10 ×10⁻⁶ cm/s | 10 to 30 ×10⁻⁶ cm/s | 0.1 to 10
Cc1cccnc1C1CCCN1Cc1cccc(C(=O)Nc2ccncc2)n1 (centres unmarked) [Compound I-90] | ≥ 1000 nM | 100 to 1000 nM |  |  | 
Cc1cccnc1C1CCCN1Cc1cccc(CC2CCN(C)CC2)n1 (centres unmarked) [Compound I-116] | ≥ 1000 nM | ≥ 1000 nM |  |  | 
Cc1cccnc1C1CCCN1Cc1nccn1-c1ccccn1 (centres unmarked) [Compound I-113] | ≥ 1000 nM | ≥ 1000 nM |  |  | 
Cc1cccnc1C1CCCN1Cc1nccn1-c1cccnc1 (centres unmarked) [Compound I-114] | ≥ 1000 nM | 100 to 1000 nM |  |  | 
Cc1cccnc1C1CCCN1C(=O)c1cn2c(N3CCN(C)CC3)cccc2n1 (centres unmarked) [Compound I-74] | ≥ 1000 nM | ≥ 1000 nM |  |  | 
c1ccc(C2CCCN2Cc2nc3ccccn3c2COc2cccnc2)nc1 (centres unmarked) [Compound I-95] | ≥ 1000 nM | ≥ 1000 nM |  |  | 
Cc1cccnc1C1CCCN1Cc1nc2ccccn2c1CCC#N (centres unmarked) [Compound I-81] | ≥ 1000 nM | 100 to 1000 nM |  |  | 
Cc1cccnc1C1CCCN1Cc1ncccc1-n1cccn1 (centres unmarked) [Compound I-66] | ≥ 1000 nM | 100 to 1000 nM |  |  | 
Cc1cccnc1C1CCCN1Cc1nccn1C(=O)N1CCN(C)CC1 (centres unmarked) [Compound I-125] | ≥ 1000 nM | 100 to 1000 nM |  |  | 
Cc1cccnc1CN1CCCC1c1cn2c(N3CCN(CC(F)(F)F)CC3)cccc2n1 (centres unmarked) [Compound I-129] | ≥ 1000 nM | ≥ 1000 nM |  |  | 
OCc1c(CN2CCCC2c2ccccn2)nc2ccccn12 (centres unmarked) [Compound I-93] | ≥ 1000 nM | 100 to 1000 nM |  |  | 

The next lines start with the values.

IC50 [1] | IC50 [2] | Papp A→B at 90 min, 10 μM [3] | Papp B→A at 90 min, 10 μM [3] | efflux ratio at 90 min, 10 μM [3] | Compound
0.01 to 100 nM | 0.01 to 100 nM | 10 to 30 ×10⁻⁶ cm/s | 0.1 to 10 ×10⁻⁶ cm/s | 0.1 to 10 | CN1CCN(c2c(CN3CCCC3c3ccc(F)cn3)nc3ccccn23)CC1 (centres unmarked) [Compound I-76]
0.01 to 100 nM | 0.01 to 100 nM | 0.1 to 10 ×10⁻⁶ cm/s | > 30 ×10⁻⁶ cm/s | 0.1 to 10 | Cc1cccnc1CN1CCCC1c1cn2c(N3CCN(C)CC3)cccc2n1 (centres unmarked) [Compound I-103]
≥ 1000 nM | 100 to 1000 nM |  |  |  | Cc1cccnc1C1CCCN1Cc1cc2c(N3CCN(C)CC3)cccc2o1 (centres unmarked) [Compound I-73]
≥ 1000 nM | ≥ 1000 nM | 0.1 to 10 ×10⁻⁶ cm/s | 10 to 30 ×10⁻⁶ cm/s | 0.1 to 10 | CN1CCN(c2cccc3nc(CN4CCCC4c4ncc[nH]4)cn23)CC1 (centres unmarked) [Compound I-50]
≥ 1000 nM | ≥ 1000 nM | 0.1 to 10 ×10⁻⁶ cm/s | > 30 ×10⁻⁶ cm/s | 0.1 to 10 | CN1CCN(c2cccc3nc(C4CCCN4Cc4ncccn4)[nH]c23)CC1 (centres unmarked) [Compound I-105]
100 to 1000 nM | 0.01 to 100 nM | 0.1 to 10 ×10⁻⁶ cm/s | 10 to 30 ×10⁻⁶ cm/s | > 30 | Cc1cccnc1C1CCCN1Cc1nc2cccc(N3CCN(C)CC3)n2c1C (centres unmarked) [Compound I-46]
0.01 to 100 nM | 0.01 to 100 nM | 0.1 to 10 ×10⁻⁶ cm/s | 10 to 30 ×10⁻⁶ cm/s | 0.1 to 10 | CN1CCN(c2c(CN3CCCC3c3ccccn3)nc3cc(F)ccn23)CC1 (centres unmarked) [Compound I-62]
≥ 1000 nM | 100 to 1000 nM | 0.1 to 10 ×10⁻⁶ cm/s | > 30 ×10⁻⁶ cm/s | > 30 | CN1CCN(c2c(C3CCCN3Cc3ncccn3)nc3ccccn23)CC1 (centres unmarked) [Compound I-102]
≥ 1000 nM | ≥ 1000 nM |  |  |  | Cc1cccnc1C1CCCN1Cc1nc2c(N3CCN(C)CC3)cccc2o1 (centres unmarked) [Compound I-72]
≥ 1000 nM | ≥ 1000 nM |  |  |  | CN1CCN(c2cccc3nc(C4CCCCN4Cc4ccccc4-n4cccn4)[nH]c23)CC1 (centres unmarked) [Compound I-3, 2-(1-(2-(1H-pyrazol-1-yl)benzyl)piperidin-2-yl)-7-(4-methylpiperazin-1-yl)-1H-benzo[d]imidazole]
≥ 1000 nM | 100 to 1000 nM |  |  |  | c1ccc(C2CCCN2Cc2nc3ccccn3c2N2CCN(c3ccncc3)CC2)nc1 (centres unmarked) [Compound I-133]
0.01 to 100 nM | 0.01 to 100 nM |  |  |  | Cc1cccnc1CN1CCCC1c1nc2ccccn2c1N1CCN(C)CC1 (centres unmarked) [Compound I-100]
≥ 1000 nM | ≥ 1000 nM |  |  |  | CN1CCN(c2cccc3[nH]c(C4CCCN4Cc4ccccc4-n4cccn4)nc23)CC1 (centres unmarked) [Compound I-5, 2-(1-(2-(1H-pyrazol-1-yl)benzyl)pyrrolidin-2-yl)-7-(4-methylpiperazin-1-yl)-1H-benzo[d]imidazole]
≥ 1000 nM | 100 to 1000 nM |  |  |  | Cc1cccnc1C1CCCN1Cc1nc2cccc(N3CCN(C)CC3)c2o1 (centres unmarked) [Compound I-71]
